In patent publication US20220192179A1, “BIOMIMETIC ICE-INHIBITING MATERIAL AND CRYOPRESERVATION SOLUTION COMPRISING SAME” (priority 2019, published 2022):
Peptide text beside a SMILES is read from it.

Columns and labels:
[1] = Ice topography (DIS) observation and thermal hysteresis (TH) measurement, nanoliter osmometer; format: physicochemical; settings: deionized aqueous solution; for thermal hysteresis (TH): nanoliter osmometer; for modification effect on the topography of ice crystals (DIS observation): supercooling degree of −0.1 °C
Procedure: DIS observation and TH measurement were performed by using a nanoliter osmometer. A capillary was first melt with the outer flame of a alcohol burner, and simultaneously stretched to produce a capillary with a very fine pore size, and the capillary was then linked to a microsyringe; an immersion oil with higher viscosity was injected into a disk with micron-sized holes, and an aqueous solution in which the material was dissolved was injected into the microholes by using a microsyringe; the droplet was quickly frozen by regulating the temperature, and then slowly heated to give a single crystal ice, the single crystal ice was slowly cooled at the precision of 0.01° C., and the DIS observation and TH test were performed by using a microscope provided with a high-speed camera.

[2] = Ice recrystallization inhibition (IRI) activity, splat-freezing method; format: physicochemical; settings: for MLGS (%) relative to that of DPBS, compared with the unbound components: 20 μL DPBS solution, same concentration
Procedure: The IRI activity was assessed using “splat-freezing method”, wherein a sample was dissolved and dispersed into a DPBS solution, and 10-30 μL of the resulting solution was added dropwise onto the surface of a clean silicon disk pre-cooled at -60° C. at a height of no less than 1.0 m; the solution was slowly heated to -6° C. at a speed of 10° C. ·min^−1 by using a hot-cold stage, and was annealed for 30 min at this temperature; the sizes of ice crystals were observed and recorded by using a polarizing microscope and a high-speed camera. The hot-cold stage was sealed to ensure that the internal humidity was about 50%.
The IRI activity was assessed using “splat-freezing method”, wherein a sample was dissolved and dispersed into a DPBS solution, and 10-30 μL of the resultant solution was added dropwise onto the surface of a clean silicon disk precooled at −60° C. at a height of no less than 1.0 m; the solution was slowly heated to −6° C. at a speed of 10° C./min by using a hot-cold stage, and was annealed for 30 min at this temperature; the sizes of ice crystals were observed and recorded by using a polarizing microscope and a high-speed camera. The hot-cold stage was sealed to ensure that the internal humidity was about 50%.
The ice recrystallization inhibition (IRI) activity was assessed using “splat-freezing method”, wherein the two PVAs were separately dissolved and dispersed into DPBS solutions, and 10-30 μL of the resulting solution was added dropwise onto the surface of a clean silicon disk pre-cooled at −60° C. at a height of no less than 1.0 m; the solution was slowly heated to −6° C. at a speed of 10° C.·min^−1 by using a hot-cold stage, and was annealed for 30 min at this temperature; the sizes of ice crystals were observed and recorded by using a polarizing microscope and a high-speed camera. The hot-cold stage was sealed to ensure that the internal humidity was about 50%.

Row | Compound | thermal hysteresis (TH) [1] | modification effect on the topography of ice crystals (DIS observation) [1] | MLGS (%) relative to that of DPBS, compared with the unbound components [2] | ability to inhibit the growth of ice crystals ([2]; result in words) | modification effect on the topography of ice crystals (DIS observation) ([1]; listed as compound of formula (9) where R is —CH2CH3) | modification effect on the topography of ice crystals (DIS observation) ([1]; listed as compound of formula (9) where R is —CH3)
1 | CC(O)C(NC(=O)[C@@H](O)[C@H](O)[C@@H](O)[C@@H](O)CO)C(=O)O (stereo partly drawn) [GDL-L-Thr] | No TH was determined | weak modification effect on the topography of ice crystals | obviously smaller than those of the DPBS solutions of GDL and amino acids at the same concentration | good capability of inhibiting the growth of ice crystals |  | 
2 | C[C@@H](O)[C@H](N)C(=O)N[C@@H](CCCNC(=N)N)C(=O)O [TR, L-Thr-L-Arg] (H-Thr-Arg-OH) | No TH was determined | weak modification effect on the topography of ice crystals | obviously smaller than that of the DPBS solutions of arginine and threonine at the same concentration |  |  | 
3 | NC(=O)CN(CCC(=O)O)C(=O)CN(CCC(=O)O)C(=O)CN(CCC(=O)O)C(=O)CN(CCC(=O)O)C(=O)CN(CCC(=O)O)C(=O)CNCCC(=O)O [peptoid where R was —CH2CH2COOH] |  | no modification effect on the topography of ice crystals |  |  |  | 
4 | CCNCC(=O)N(CC)CC(=O)N(CC)CC(=O)N(CC)CC(=O)N(CC)CC(=O)N(CC)CC(N)=O [peptoid where R was —CH2CH3] | no TH | rather obvious modification effects on the topography of ice crystals |  |  | excellent modification effect on the topography of ice crystals | 
5 | CNCC(=O)N(C)CC(=O)N(C)CC(=O)N(C)CC(=O)N(C)CC(=O)N(C)CC(N)=O [peptoid where R was —CH3] | no TH | rather obvious modification effects on the topography of ice crystals |  |  |  | excellent modification effect on the topography of ice crystals
6 | GDL-L-Ser |  |  | obviously smaller than those of the DPBS solutions of GDL and amino acids at the same concentration |  |  | 
7 | GDL-L-Val |  |  | obviously smaller than those of the DPBS solutions of GDL and amino acids at the same concentration |  |  | 
